Reference: paper PMC7702303, “Biochemical and transcript level differences between the three human phosphofructokinases show optimisation of each isoform for specific metabolic niches” (Biochemical Journal, 2020)

Tests used:
[1] = test system: PFK; design: key to Effect (activator or inhibitor of PFK): “+” indicates activator; “-“ indicates inhibitor; details: cited from earlier work; for Effect (activator or inhibitor of PFK): published literature, ref selected references in Supplementary Table 1
[2] = test system: PFKM; details: PFKM; ref Sanchez-Martinez et al., 2000; read-out: Kact; cited from earlier work
[3] = test system: PFKL; details: ref Van Schaftingen et al 1981; cited from earlier work
[4] = biological target: T1, recombinant human PFK-M (Homo sapiens, UniProt P08237); assay: ALDO-TIM-G3PDH enzyme-linked kinetic assay, PFK-M; type: biochemical; details: modulator 1100 µM
T1 construct: made in house; host or cells: PFK-deficient Saccharomyces cerevisiae
T1 sequence (P08237 1-780): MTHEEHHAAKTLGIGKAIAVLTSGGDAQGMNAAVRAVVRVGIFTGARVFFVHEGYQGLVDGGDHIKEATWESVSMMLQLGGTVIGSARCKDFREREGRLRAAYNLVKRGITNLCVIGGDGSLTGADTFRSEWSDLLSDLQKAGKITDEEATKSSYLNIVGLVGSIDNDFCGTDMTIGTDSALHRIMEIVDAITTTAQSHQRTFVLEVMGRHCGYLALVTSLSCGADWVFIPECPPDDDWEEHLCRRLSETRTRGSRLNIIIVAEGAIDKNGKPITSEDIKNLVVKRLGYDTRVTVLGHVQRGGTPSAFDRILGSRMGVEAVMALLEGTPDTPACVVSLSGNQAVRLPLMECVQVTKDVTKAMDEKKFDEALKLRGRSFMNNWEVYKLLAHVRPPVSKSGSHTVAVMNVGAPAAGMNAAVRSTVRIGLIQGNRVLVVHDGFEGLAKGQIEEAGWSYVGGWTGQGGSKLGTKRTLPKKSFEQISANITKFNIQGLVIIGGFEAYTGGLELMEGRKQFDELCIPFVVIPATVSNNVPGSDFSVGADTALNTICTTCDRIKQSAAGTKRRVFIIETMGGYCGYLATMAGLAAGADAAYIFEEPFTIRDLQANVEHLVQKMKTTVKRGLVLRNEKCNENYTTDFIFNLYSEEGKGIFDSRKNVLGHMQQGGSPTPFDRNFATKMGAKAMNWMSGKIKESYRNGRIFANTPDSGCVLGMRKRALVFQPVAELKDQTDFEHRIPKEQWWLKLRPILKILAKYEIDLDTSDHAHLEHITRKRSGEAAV
Description: (§1) Recombinant human PFKs were expressed in PFK-deficient Saccharomyces cerevisiae and purified using the methods described previously, adapting earlier materials and protocols. Production of PFK intended for use in ATP titration experiments used 1 mM F6P as a tetramer stabilising agent in protein purification and storage buffers. Production of PFK intended for use in F6P titration experiments used 1 mM ATP as a tetramer stabilising agent in protein purification and storage buffers. Experimental details on the purification and characterisation procedures including figures showing SDS–PAGE gels of the highly pure PFKs used in the kinetic experiments described in this work have been recently published.
(§2) Assay buffer consisted of 50 mM TEA, 100 mM KCl, 10 mM MgCl2, 1 mM Tris(2-carboxyethyl)phosphine hydrochloride (TCEP), 10% glycerol, pH 7.4. Assay mix consisted of 5 units/ml glycerol-3-phosphate dehydrogenase (G3PDH, Sigma–Aldrich G6880), 2.5 units/ml aldolase (Sigma–Aldrich A2714), 25 units/ml triosephosphate isomerase (TIM, Sigma–Aldrich T6258), and 1.25 mM NADH. ATP and F6P were obtained from Sigma–Aldrich (A2383 and F3627, respectively). For ATP titrations, 38 µl of buffer or ligand were added to a clear non-binding 96-well plate. 40 µl of assay mix containing 10 mM F6P (final concentration 4 mM) was added and the plate was incubated at 25°C for 5 min. An amount of 2 µl of PFK isoforms were added to each well from stock concentrations of 150 µg/ml and the reaction was immediately started with 20 µl of ATP at varying concentrations. For F6P titrations, 30 µl of buffer or ligand was added to a clear non-binding 96-well plate. An amount of 40 µl of assay mix containing 1.25 mM ATP (final concentration 0.5 mM) was added and the plate was incubated at 25°C for 5 min. An amount of 5 µl of PFK isoforms were added to each well from stock concentrations of 200 µg/ml and the reaction was immediately started with 20 µl F6P at varying concentrations. All ligands and substrates (including ATP) were used at pH 7.4. All metabolites were obtained from Sigma–Aldrich unless otherwise stated. […] A SpectraMax M5 Multi-Mode Microplate Reader was used to measure A340nm at 13 s intervals for 10 min. All experiments were performed in triplicate unless otherwise stated.
(§3) Time-dependent absorbance change was converted into rate of NADH oxidation (µM s^−1) or specific activity (µmol min^−1 mg protein^−1) using the Beer-Lambert law (molar extinction coefficient of NADH 6.22 mM^−1 cm^−1). The initial rate of reaction was used to avoid accumulation of ADP, which activates PFK, interfering with the determination of kinetic properties. Non-linear regression analysis was performed on substrate titration data using GraphPad Prism 7, with curves fitted using allosteric sigmoidal models, enabling determination of steady-state kinetic values.

[5] = biological target: T2, recombinant human PFK-L (Homo sapiens, UniProt P17858); assay: ALDO-TIM-G3PDH enzyme-linked kinetic assay, PFK-L; type: biochemical; details: PFK-L, modulator 1100 µM
T2 construct: made in house; host or cells: PFK-deficient Saccharomyces cerevisiae
T2 sequence (P17858 1-780): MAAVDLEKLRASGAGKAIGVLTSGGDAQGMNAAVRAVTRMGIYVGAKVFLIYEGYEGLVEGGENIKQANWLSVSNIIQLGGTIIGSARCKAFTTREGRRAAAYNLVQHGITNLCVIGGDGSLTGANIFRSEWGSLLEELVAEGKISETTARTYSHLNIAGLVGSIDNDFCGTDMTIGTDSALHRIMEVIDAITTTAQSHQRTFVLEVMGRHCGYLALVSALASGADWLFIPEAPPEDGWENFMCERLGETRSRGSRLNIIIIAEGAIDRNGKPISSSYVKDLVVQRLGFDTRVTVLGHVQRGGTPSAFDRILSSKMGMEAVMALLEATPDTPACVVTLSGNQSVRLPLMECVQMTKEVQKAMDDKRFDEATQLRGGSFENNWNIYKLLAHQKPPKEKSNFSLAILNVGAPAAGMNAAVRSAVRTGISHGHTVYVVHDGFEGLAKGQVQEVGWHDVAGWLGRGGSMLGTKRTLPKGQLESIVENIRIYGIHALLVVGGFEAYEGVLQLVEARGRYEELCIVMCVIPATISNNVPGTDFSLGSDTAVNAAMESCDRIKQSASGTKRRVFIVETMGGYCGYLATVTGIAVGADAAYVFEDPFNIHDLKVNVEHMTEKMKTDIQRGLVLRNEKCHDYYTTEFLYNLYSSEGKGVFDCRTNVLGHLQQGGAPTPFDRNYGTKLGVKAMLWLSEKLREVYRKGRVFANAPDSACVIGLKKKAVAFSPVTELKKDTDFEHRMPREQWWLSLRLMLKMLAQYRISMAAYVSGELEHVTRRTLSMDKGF
Description: as §1, §2, §3

[6] = biological target: T3, recombinant human PFK-P (Homo sapiens, UniProt Q01813); assay: ALDO-TIM-G3PDH enzyme-linked kinetic assay, PFK-P; type: biochemical; details: modulator 1100 µM
T3 construct: made in house; host or cells: PFK-deficient Saccharomyces cerevisiae
T3 sequence (Q01813 1-784): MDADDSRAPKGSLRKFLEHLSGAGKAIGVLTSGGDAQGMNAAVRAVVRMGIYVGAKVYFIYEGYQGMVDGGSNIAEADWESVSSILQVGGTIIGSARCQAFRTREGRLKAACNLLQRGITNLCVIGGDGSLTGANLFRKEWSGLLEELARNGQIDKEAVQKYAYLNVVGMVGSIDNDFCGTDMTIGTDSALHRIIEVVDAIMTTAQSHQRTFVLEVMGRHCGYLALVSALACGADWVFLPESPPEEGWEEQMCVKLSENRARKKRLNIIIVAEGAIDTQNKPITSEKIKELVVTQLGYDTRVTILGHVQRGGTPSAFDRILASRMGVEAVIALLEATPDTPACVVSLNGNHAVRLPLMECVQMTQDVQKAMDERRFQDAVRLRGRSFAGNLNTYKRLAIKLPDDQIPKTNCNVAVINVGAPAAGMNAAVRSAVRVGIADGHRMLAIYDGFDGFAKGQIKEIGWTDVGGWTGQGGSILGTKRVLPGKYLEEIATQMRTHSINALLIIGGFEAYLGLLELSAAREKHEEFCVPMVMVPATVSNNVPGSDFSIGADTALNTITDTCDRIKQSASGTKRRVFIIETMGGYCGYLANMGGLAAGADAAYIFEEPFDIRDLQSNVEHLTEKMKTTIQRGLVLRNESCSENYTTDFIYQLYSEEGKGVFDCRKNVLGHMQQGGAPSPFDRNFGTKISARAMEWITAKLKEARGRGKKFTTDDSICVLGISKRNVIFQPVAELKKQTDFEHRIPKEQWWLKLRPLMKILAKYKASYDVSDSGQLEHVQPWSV
Description: as §1, §2, §3

[7] = test system: PFKP; details: ref Sanchez-Martinez et al., 2000; cited from earlier work
[8] = test system: monocyte-derived macrophages; design: method as in FANTOM5 database; details: n = 3, ref FANTOM5 database, cited from earlier work

For `O=C1O[C@H]([C@@H](O)CO)C(O)=C1O` [Ascorbate], the “Effect (activator or inhibitor of PFK)” value [1] is listed as “-”.

For `O=C(COP(=O)(O)O)[C@@H](O)[C@H](O)[C@H](O)COP(=O)(O)O` [F16BP, fructose 1,6-bisphosphate], the EC50 [2] is given as 1500 nM, the IC50 or AC50 (activator) [3] is given as 40 µM and the “Effect (activator or inhibitor of PFK)” value [1] is given as “+”.

In the case of `O=P(O)(O)OC[C@H]1O[C@H](OP(=O)(O)O)[C@H](O)[C@@H](O)[C@@H]1O` [G16BP], the “IC50 or AC50 (activator)” value [3] is given as 100 µM and the “Effect (activator or inhibitor of PFK)” value [1] is given as “+”.

For `Nc1nc2c(ncn2[C@@H]2O[C@H](COP(=O)(O)OP(=O)(O)O)[C@@H](O)[C@H]2O)c(=O)[nH]1` [GDP], the “change in kcat^ATP/K0.5^ATP compared with control PFK without modulator” value (“change … with control PFK without modulator” below) [4] was “+4.3%”, the “change … with control PFK without modulator” value [5] was −48% and the “K0.5ATP + modulator” value ([5]; F6P 4mM, N=3, mean (SD)) was 404.4 (65.6) M. The “VmaxATP + modulator” value ([5]; F6P 4mM, N=3, mean (SD)) was 44.20 (2.84) moles/min/mg, the “change … with control PFK without modulator” value [6] was −0.2% and the “K0.5ATP + modulator” value ([6]; F6P 4mM, N=3, mean (SD)) was 924.6 (367.7) M. The “VmaxATP + modulator” value ([6]; F6P 4mM, N=3, mean (SD)) was 31.48 (4.42) moles/min/mg.

For `[K+]` [K+], the “Effect (activator or inhibitor of PFK)” value [1] is given as “+”.

For `N` [NH4+], the “IC50 or AC50 (activator)” value [7] is given as 0.4 mM and the “Effect (activator or inhibitor of PFK)” value [1] is given as “+”.

For `O=P(O)(O)O` [PO4 3-], the “IC50 or AC50 (activator)” value [7] is given as 0.3 mM and the “Effect (activator or inhibitor of PFK)” value [1] is given as “+”.

For `Nc1nc2c(ncn2[C@@H]2O[C@@H]3COP(=O)(O)O[C@H]3[C@H]2O)c(=O)[nH]1` [cGMP], the “Effect (activator or inhibitor of PFK)” value [1] is given as “-”.

For Actin, the “Effect (activator or inhibitor of PFK)” value [1] is listed as “+”.

In the case of Lactate, the “Effect (activator or inhibitor of PFK)” value [1] is given as “-” and the IC50 ([1]; value marked *, asterisk not explained, ref Costa Leite et al., 2007, read-out: IC50 or AC50 (inhibitor)) is given as 4.6 mM.

In the case of lipopolysaccharide [LPS], the PFK-P transcript level ([8]; monocyte-derived macrophages activated by LPS) is given as 10.3 × baseline and the PFK-L transcript level ([8]; monocyte-derived macrophages after LPS stimulation) is given as 1.9 × baseline.

B1: Band 3: protein, PFK inhibitor in the published literature (protein, UniProt P02730 1-911, looked up)
Band 3 anion transport protein: MEELQDDYEDMMEENLEQEEYEDPDIPESQMEEPAAHDTEATATDYHTTSHPGTHKVYVELQELVMDEKNQELRWMEAARWVQLEENLGENGAWGRPHLSHLTFWSLLELRRVFTKGTVLLDLQETSLAGVANQLLDRFIFEDQIRPQDREELLRALLLKHSHAGELEALGGVKPAVLTRSGDPSQPLLPQHSSLETQLFCEQGDGGTEGHSPSGILEKIPPDSEATLVLVGRADFLEQPVLGFVRLQEAAELEAVELPVPIRFLFVLLGPEAPHIDYTQLGRAAATLMSERVFRIDAYMAQSRGELLHSLEGFLDCSLVLPPTDAPSEQALLSLVPVQRELLRRRYQSSPAKPDSSFYKGLDLNGGPDDPLQQTGQLFGGLVRDIRRRYPYYLSDITDAFSPQVLAAVIFIYFAALSPAITFGGLLGEKTRNQMGVSELLISTAVQGILFALLGAQPLLVVGFSGPLLVFEEAFFSFCETNGLEYIVGRVWIGFWLILLVVLVVAFEGSFLVRFISRYTQEIFSFLISLIFIYETFSKLIKIFQDHPLQKTYNYNVLMVPKPQGPLPNTALLSLVLMAGTFFFAMMLRKFKNSSYFPGKLRRVIGDFGVPISILIMVLVDFFIQDTYTQKLSVPDGFKVSNSSARGWVIHPLGLRSEFPIWMMFASALPALLVFILIFLESQITTLIVSKPERKMVKGSGFHLDLLLVVGMGGVAALFGMPWLSATTVRSVTHANALTVMGKASTPGAAAQIQEVKEQRISGLLVAVLVGLSILMEPILSRIPLAVLFGIFLYMGVTSLSGIQLFDRILLLFKPPKYHPDVPYVKRVKTWRMHLFTGIQIICLAVLWVVKSTPASLALPFVLILTVPLRRVLLPLIFRNVELQCLDADDAKATFDEEEGRDEYDEVAMPV
For B1, the “Effect (activator or inhibitor of PFK)” value [1] is listed as “-”.
